Results on 19 compounds are retold here after patent publication US20240132521A1, “COMPOUNDS AND METHODS FOR MODULATING HER2” (Iambic Therapeutics, Inc., priority 2022, published 2024).

Common to all, as to type: cell-based
One assay has as its target BaF3_HER2WT cells (Homo sapiens, UniProt P04626). Briefly: Cell growth inhibition assay (CellTiterGlo), BaF3_HER2WT. In general terms: ATP-based viability assays read luminescence as a measure of living cells.
The target in the next assay is BaF3_HER2YVMA cells (Homo sapiens, UniProt P04626, DUP772-775, cells depend on it). Briefly: Cell growth inhibition assay (CellTiterGlo), BaF3_HER2YVMA.
For the next assay, the target named is BaF3_EGFRWT cells (Homo sapiens, UniProt P00533). Briefly: Cell growth inhibition assay (CellTiterGlo), BaF3_EGFRWT.
Setting [1] is: 3-day treatment, CellTiterGlo, read-out: Cell growth inhibition activity, HER2 WT.
The mark [2] stands for this setting: 3-day treatment, CellTiterGlo, read-out: Cell growth inhibition activity, HER2 - YVMA.
Setting [3] is: 3-day treatment, CellTiterGlo, read-out: Cell growth inhibition activity, EGFR WT.
Where [4] appears, read: cell growth inhibition, 3 days treatment, read-out: HER2 WT IC50.
The mark [5] stands for this setting: cell growth inhibition, 3 days treatment, read-out: HER2 - YVMA IC50.
Where [6] appears, read: cell growth inhibition, 80 ng/mL EGF, 3 days treatment, read-out: EGFR WT IC50.

Like-named read-outs stand apart in the source and are kept apart here. A value given as a limit tells only on which side of the number the result lay.

Chain of BaF3_HER2WT cells (P04626 whole entry, change not shown): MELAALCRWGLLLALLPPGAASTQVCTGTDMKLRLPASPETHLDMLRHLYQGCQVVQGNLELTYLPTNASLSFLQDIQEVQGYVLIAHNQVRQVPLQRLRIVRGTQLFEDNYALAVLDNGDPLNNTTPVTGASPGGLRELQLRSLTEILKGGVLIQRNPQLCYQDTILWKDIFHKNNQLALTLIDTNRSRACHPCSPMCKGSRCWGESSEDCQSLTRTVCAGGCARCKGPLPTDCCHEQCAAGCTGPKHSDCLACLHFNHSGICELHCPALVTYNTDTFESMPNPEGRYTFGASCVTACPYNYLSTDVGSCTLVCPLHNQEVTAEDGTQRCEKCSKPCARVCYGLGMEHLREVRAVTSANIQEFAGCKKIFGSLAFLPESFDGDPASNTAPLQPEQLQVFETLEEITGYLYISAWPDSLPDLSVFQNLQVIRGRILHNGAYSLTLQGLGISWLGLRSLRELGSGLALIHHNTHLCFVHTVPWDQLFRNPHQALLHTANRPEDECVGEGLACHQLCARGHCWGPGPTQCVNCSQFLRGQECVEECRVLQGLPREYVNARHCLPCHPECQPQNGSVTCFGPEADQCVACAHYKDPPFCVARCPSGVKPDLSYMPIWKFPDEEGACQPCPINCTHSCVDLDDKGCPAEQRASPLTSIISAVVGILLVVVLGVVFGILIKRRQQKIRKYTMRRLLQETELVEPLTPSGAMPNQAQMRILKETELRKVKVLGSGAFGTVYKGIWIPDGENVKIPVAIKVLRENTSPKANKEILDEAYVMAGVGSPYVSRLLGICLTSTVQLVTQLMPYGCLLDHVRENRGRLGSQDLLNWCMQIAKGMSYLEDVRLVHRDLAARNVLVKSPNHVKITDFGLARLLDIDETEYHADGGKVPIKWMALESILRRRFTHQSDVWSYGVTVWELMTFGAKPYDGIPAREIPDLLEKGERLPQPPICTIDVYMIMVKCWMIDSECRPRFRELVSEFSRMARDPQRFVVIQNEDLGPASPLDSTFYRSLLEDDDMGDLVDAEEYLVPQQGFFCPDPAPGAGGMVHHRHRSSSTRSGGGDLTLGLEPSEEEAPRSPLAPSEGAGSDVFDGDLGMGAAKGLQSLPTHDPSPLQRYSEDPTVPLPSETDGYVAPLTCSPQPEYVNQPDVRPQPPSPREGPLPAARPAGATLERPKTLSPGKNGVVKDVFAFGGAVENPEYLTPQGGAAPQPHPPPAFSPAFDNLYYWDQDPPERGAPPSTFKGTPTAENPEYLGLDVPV
Chain of BaF3_EGFRWT cells (P00533 whole entry, change not shown): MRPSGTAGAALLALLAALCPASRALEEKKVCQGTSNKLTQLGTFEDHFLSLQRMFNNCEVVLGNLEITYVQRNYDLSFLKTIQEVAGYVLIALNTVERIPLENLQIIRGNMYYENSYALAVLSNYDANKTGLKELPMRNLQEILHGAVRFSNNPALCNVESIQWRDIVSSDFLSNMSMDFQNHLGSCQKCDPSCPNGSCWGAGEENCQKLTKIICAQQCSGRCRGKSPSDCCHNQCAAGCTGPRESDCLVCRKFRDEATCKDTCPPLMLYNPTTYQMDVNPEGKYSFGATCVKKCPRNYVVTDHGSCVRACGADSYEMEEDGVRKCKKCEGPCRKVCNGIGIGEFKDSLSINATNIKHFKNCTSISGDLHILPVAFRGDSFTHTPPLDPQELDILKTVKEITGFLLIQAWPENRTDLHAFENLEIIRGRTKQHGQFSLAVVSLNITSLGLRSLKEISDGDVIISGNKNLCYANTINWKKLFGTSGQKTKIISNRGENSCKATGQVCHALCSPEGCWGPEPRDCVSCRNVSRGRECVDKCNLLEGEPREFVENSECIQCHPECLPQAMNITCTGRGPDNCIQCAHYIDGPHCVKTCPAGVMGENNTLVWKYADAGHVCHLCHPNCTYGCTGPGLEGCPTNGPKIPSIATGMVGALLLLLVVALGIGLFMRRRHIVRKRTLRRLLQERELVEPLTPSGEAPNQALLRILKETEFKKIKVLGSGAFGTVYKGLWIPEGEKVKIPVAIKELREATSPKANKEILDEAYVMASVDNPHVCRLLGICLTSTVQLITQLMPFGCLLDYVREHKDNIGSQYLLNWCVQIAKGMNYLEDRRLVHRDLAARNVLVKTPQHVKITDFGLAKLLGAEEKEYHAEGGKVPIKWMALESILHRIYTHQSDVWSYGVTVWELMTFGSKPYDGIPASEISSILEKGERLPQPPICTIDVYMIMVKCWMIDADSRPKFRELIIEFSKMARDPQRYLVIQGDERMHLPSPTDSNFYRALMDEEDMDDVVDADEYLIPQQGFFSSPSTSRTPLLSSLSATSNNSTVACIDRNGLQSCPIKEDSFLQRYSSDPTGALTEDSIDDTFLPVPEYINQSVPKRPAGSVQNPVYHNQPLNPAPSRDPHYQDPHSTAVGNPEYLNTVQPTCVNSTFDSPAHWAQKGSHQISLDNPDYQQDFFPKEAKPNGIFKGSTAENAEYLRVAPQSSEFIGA
Chain of BaF3_HER2YVMA cells (P04626 with tags, fused parts or gaps DUP772-775): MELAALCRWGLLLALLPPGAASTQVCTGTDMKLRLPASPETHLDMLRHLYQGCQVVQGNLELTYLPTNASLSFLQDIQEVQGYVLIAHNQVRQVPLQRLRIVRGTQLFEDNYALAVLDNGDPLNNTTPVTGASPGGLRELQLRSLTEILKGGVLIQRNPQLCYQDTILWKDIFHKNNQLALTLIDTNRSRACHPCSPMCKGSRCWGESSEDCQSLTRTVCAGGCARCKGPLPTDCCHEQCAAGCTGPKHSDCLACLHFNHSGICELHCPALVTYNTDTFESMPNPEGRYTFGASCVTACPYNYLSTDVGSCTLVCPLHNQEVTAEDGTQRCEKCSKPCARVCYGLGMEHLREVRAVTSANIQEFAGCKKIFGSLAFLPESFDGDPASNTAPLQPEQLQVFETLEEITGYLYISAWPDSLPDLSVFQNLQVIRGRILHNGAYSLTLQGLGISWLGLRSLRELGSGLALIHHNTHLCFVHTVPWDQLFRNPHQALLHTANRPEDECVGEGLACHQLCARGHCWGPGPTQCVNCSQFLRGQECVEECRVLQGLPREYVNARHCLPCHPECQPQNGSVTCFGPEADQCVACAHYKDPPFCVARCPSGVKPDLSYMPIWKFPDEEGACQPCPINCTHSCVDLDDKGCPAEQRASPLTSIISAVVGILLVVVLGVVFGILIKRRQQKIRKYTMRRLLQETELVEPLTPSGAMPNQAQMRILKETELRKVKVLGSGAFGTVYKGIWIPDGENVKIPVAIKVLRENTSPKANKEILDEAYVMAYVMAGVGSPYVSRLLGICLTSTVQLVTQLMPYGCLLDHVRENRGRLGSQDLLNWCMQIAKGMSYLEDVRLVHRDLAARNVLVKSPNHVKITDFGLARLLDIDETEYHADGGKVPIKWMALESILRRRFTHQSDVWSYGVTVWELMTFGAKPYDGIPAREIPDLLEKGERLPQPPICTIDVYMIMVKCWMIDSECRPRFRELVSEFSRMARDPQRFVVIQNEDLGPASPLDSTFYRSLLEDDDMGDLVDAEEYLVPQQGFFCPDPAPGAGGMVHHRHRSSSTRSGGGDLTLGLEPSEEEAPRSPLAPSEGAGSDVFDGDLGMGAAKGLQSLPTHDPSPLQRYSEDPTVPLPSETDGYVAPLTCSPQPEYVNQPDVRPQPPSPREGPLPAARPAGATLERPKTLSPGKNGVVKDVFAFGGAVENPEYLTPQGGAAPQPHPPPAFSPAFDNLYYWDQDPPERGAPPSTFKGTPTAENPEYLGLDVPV

Regarding `COC1(c2ccn3ncnc(Nc4ccc(Oc5ccn6ncnc6c5)c(C)c4)c23)CCN(C(=O)/C=C/CN(C)C)CC1` [Example 52, (E)-1-(4-(4-((4-([1,2,4]triazolo[1,5-a]pyridin-7-yloxy)-3-methylphenyl)amino)pyrrolo[2,1-f][1,2,4]triazin-5-yl)-4-methoxypiperidin-1-yl)-4-(dimethylamino)but-2-en-1-one], the values for the GI50 on BaF3_HER2WT cells (setting [1]), at BaF3_HER2YVMA cells (setting [2]) and at BaF3_EGFRWT cells (setting [3]) were 200 to 500 nM, 500 to 1500 nM and 1500 to 5000 nM, respectively.
In the same order, the values of `C#CCN(C)C/C=C/C(=O)N1CCC(c2ccn3ncnc(Nc4ccc(Oc5ccn6ncnc6c5)c(C)c4)c23)CC1` [Example 59, (E)-1-(4-(4-((4-([1,2,4]triazolo[1,5-a]pyridin-7-yloxy)-3-methylphenyl)amino)pyrrolo[2,1-f][1,2,4]triazin-5-yl)piperidin-1-yl)-4-(methyl(prop-2-yn-1-yl)amino)but-2-en-1-one] are below 200 nM, 200 to 500 nM and 1500 to 5000 nM.
`Cc1cc(Nc2ncnn3ccc(C4CCCN(C(=O)/C=C/CN(C)C)C4)c23)ccc1Oc1ccn2ncnc2c1` (single isomer, unassigned) [Examples 107 and 108, first eluting isomer, (E)-1-(3-(4-((4-([1,2,4]triazolo[1,5-a]pyridin-7-yloxy)-3-methylphenyl)amino)pyrrolo[2,1-f][1,2,4]triazin-5-yl)piperidin-1-yl)-4-(dimethylamino)but-2-en-1-one]: the GI50 was below 200 nM on BaF3_HER2WT cells (setting [4]), 500 to 1500 nM at BaF3_HER2YVMA cells (setting [5]) and 1500 to 5000 nM on BaF3_EGFRWT cells (setting [6]).
With `C=C(CN(C)C)C(=O)N1CC2CCC(C1)N2c1ccn2ncnc(Nc3ccc(Oc4ccn5ncnc5c4)c(C)c3)c12` [Example 49, 1-(8-(4-((4-([1,2,4]triazolo[1,5-a]pyridin-7-yloxy)-3-methylphenyl)amino)pyrrolo[2,1-f][1,2,4]triazin-5-yl)-3,8-diazabicyclo[3.2.1]octan-3-yl)-2-((dimethylamino)methyl)prop-2-en-1-one acetate], the GI50 on BaF3_HER2WT cells (setting [1]) is below 200 nM; at BaF3_HER2YVMA cells (setting [2]), below 200 nM; at BaF3_EGFRWT cells (setting [3]), 1500 to 5000 nM.
Turning to `Cc1cc(Nc2ncnn3ccc(C4CCN(C(=O)/C=C/CN5CCCCC5)CC4)c23)ccc1Oc1ccn2ncnc2c1` [Example 57, (E)-1-(4-(4-((4-([1,2,4]triazolo[1,5-a]pyridin-7-yloxy)-3-methylphenyl)amino)pyrrolo[2,1-f][1,2,4]triazin-5-yl)piperidin-1-yl)-4-(piperidin-1-yl)but-2-en-1-one], the figures for the GI50 at BaF3_HER2WT cells (setting [1]), on BaF3_HER2YVMA cells (setting [2]) and at BaF3_EGFRWT cells (setting [3]) were below 200 nM, below 200 nM and 1500 to 5000 nM, respectively.
Consider `Cc1cc(Nc2ncnn3ccc(N4CC(NC(=O)/C=C/CN(C)C)C4)c23)ccc1Oc1ccn2ncnc2c1` [Example 71, (E)-N-(1-(4-((4-([1,2,4]triazolo[1,5-a]pyridin-7-yloxy)-3-methylphenyl)amino)pyrrolo[2,1-f][1,2,4]triazin-5-yl)azetidin-3-yl)-4-(dimethylamino)but-2-enamide], for which the GI50 at BaF3_HER2WT cells (setting [1]) was below 200 nM; on BaF3_HER2YVMA cells (setting [2]), 200 to 500 nM; on BaF3_EGFRWT cells (setting [3]) it was 1500 to 5000 nM.
Consider `Cc1cc(Nc2ncnn3ccc(C4CCN(C(=O)/C=C/CN(C)C)C4)c23)ccc1Oc1ccn2ncnc2c1` (single isomer, unassigned) [Examples 99 and 100, first eluting isomer, (E)-1-(3-(4-((4-([1,2,4]triazolo[1,5-a]pyridin-7-yloxy)-3-methylphenyl)amino)pyrrolo[2,1-f][1,2,4]triazin-5-yl)pyrrolidin-1-yl)-4-(dimethylamino)but-2-en-1-one], for which the GI50 was below 200 nM at BaF3_HER2WT cells (setting [4]), below 200 nM at BaF3_HER2YVMA cells (setting [5]) and 1500 to 5000 nM on BaF3_EGFRWT cells (setting [6]).
In the case of `Cc1cc(Nc2ncnn3ccc(C4CCN(C(=O)/C=C/CN5CC(F)C5)CC4)c23)ccc1Oc1ccc2c(c1)ncn2C` [Example 162, (E)-4-(3-fluoroazetidin-1-yl)-1-(4-(4-((3-methyl-4-((1-methyl-1H-benzo[d]imidazol-5-yl)oxy)phenyl)amino)pyrrolo[2,1-f][1,2,4]triazin-5-yl)piperidin-1-yl)but-2-en-1-one], the GI50 on BaF3_HER2WT cells (setting [1]) lay within 200 to 500 nM; on BaF3_HER2YVMA cells (setting [2]), 500 to 1500 nM; on BaF3_EGFRWT cells (setting [3]), 1500 to 5000 nM.
The like results for `Cc1cc(Nc2ncnn3ccc(N4CCN(C(=O)/C=C/CN(C)C)CC4=O)c23)ccc1Oc1ccn2ncnc2c1` [Example 54, (E)-1-(4-((4-([1,2,4]triazolo[1,5-a]pyridin-7-yloxy)-3-methylphenyl)amino)pyrrolo[2,1-f][1,2,4]triazin-5-yl)-4-(4-(dimethylamino)but-2-enoyl)piperazin-2-one] were, in that order, 500 to 1500 nM, 1500 to 5000 nM and 1500 to 5000 nM.
In the same order, the values of `Cc1cc(Nc2ncnn3ccc(C4CCN(C(=O)/C=C/CN(C)C)CC4(F)F)c23)ccc1Oc1ccn2ncnc2c1` (stereo not drawn) [Example 176, (E)-1-(4-(4-((4-([1,2,4]triazolo[1,5-a]pyridin-7-yloxy)-3-methylphenyl)amino)pyrrolo[2,1-f][1,2,4]triazin-5-yl)-3,3-difluoropiperidin-1-yl)-4-(dimethylamino)but-2-en-1-one] are below 200 nM, below 200 nM and 1500 to 5000 nM.
In the same order, the values of `Cc1cc(Nc2ncnn3ccc(C4CCN(C(=O)/C=C/[C@H]5CCCN5C)CC4)c23)ccc1Oc1ccn2ncnc2c1` [Example 25, (R,E)-1-(4-(4-((4-([1,2,4]triazolo[1,5-a]pyridin-7-yloxy)-3-methylphenyl)amino)pyrrolo[2,1-f][1,2,4]triazin-5-yl)piperidin-1-yl)-3-(1-methylpyrrolidin-2-yl)prop-2-en-1-one] are below 200 nM, below 200 nM and 1500 to 5000 nM.
For the compound `C=CC(=O)N1CC2(C1)CN(c1ccn3ncnc(Nc4cnc(Oc5ccn6ncnc6c5)c(Cl)c4)c13)C2` [Example 15, 1-(6-(4-((6-([1,2,4]triazolo[1,5-a]pyridin-7-yloxy)-5-chloropyridin-3-yl)amino)pyrrolo[2,1-f][1,2,4]triazin-5-yl)-2,6-diazaspiro[3.3]heptan-2-yl)prop-2-en-1-one], the GI50 on BaF3_HER2WT cells (setting [1]) was 1500 to 5000 nM; at BaF3_HER2YVMA cells (setting [2]), above 5000 nM; at BaF3_EGFRWT cells (setting [3]), 1500 to 5000 nM.
Turning to `Cc1cc(Nc2ncnn3ccc(C4CCN(C(=O)/C=C/CN5CCN(C)CC5)CC4)c23)ccc1Oc1ccn2ncnc2c1` [Example 24, (E)-1-(4-(4-((4-([1,2,4]triazolo[1,5-a]pyridin-7-yloxy)-3-methylphenyl)amino)pyrrolo[2,1-f][1,2,4]triazin-5-yl)piperidin-1-yl)-4-(4-methylpiperazin-1-yl)but-2-en-1-one], the results for the GI50 on BaF3_HER2WT cells (setting [1]), at BaF3_HER2YVMA cells (setting [2]) and on BaF3_EGFRWT cells (setting [3]) were below 200 nM, 500 to 1500 nM and 1500 to 5000 nM, respectively.
For `C=C(CN(C)C)C(=O)N1C2CCC1CC(c1ccn3ncnc(Nc4ccc(Oc5ccn6ncnc6c5)c(C)c4)c13)C2` (single isomer, unassigned) [Examples 126 and 127, second eluting isomer, 1-(3-(4-((4-([1,2,4]triazolo[1,5-a]pyridin-7-yloxy)-3-methylphenyl)amino)pyrrolo[2,1-f][1,2,4]triazin-5-yl)-8-azabicyclo[3.2.1]octan-8-yl)-2-((dimethylamino)methyl)prop-2-en-1-one], the GI50 at BaF3_HER2WT cells (setting [4]) lay within 200 to 500 nM; on BaF3_HER2YVMA cells (setting [5]), 500 to 1500 nM; at BaF3_EGFRWT cells (setting [6]) it was 1500 to 5000 nM.
For the compound `Cc1cc(Nc2ncnn3ccc(C4CN(C(=O)/C=C/CN5CCC(F)(F)CC5)C4)c23)ccc1Oc1ccn2ncnc2c1` [Example 85, (E)-1-(3-(4-((4-([1,2,4]triazolo[1,5-a]pyridin-7-yloxy)-3-methylphenyl)amino)pyrrolo[2,1-f][1,2,4]triazin-5-yl)azetidin-1-yl)-4-(4,4-difluoropiperidin-1-yl)but-2-en-1-one], the GI50 on BaF3_HER2WT cells (setting [1]) was below 200 nM; on BaF3_HER2YVMA cells (setting [2]), below 200 nM; on BaF3_EGFRWT cells (setting [3]) it was 1500 to 5000 nM.
Take `Cc1cc(Nc2ncnn3ccc(C4CC5CCC4CN5C(=O)/C=C/CN(C)C)c23)ccc1Oc1ccn2ncnc2c1` (single isomer, unassigned; first eluting) [Examples 137 and 138, first eluting isomer]: the GI50 at BaF3_HER2WT cells (setting [4]) is below 200 nM; on BaF3_HER2YVMA cells (setting [5]) it was 200 to 500 nM; on BaF3_EGFRWT cells (setting [6]), 1500 to 5000 nM.
In the same order, the values of `C=CC(=O)N1CC2CCC1CC2c1ccn2ncnc(Nc3ccc(Oc4ccn5ncnc5c4)c(C)c3)c12` (single isomer, unassigned) [Examples 139 and 140, first eluting isomer, 1-(5-(4-((4-([1,2,4]triazolo[1,5-a]pyridin-7-yloxy)-3-methylphenyl)amino)pyrrolo[2,1-f][1,2,4]triazin-5-yl)-2-azabicyclo[2.2.2]octan-2-yl)prop-2-en-1-one] are below 200 nM, below 200 nM and 1500 to 5000 nM.
As to `C=CC(=O)N1CC2(CC(c3ccn4ncnc(Nc5ccc(Oc6ccn7ncnc7c6)c(C)c5)c34)C2)C1` [Example 17, 1-(6-(4-((4-([1,2,4]triazolo[1,5-a]pyridin-7-yloxy)-3-methylphenyl)amino)pyrrolo[2,1-f][1,2,4]triazin-5-yl)-2-azaspiro[3.3]heptan-2-yl)prop-2-en-1-one], the results for the GI50 at BaF3_HER2WT cells (setting [1]), on BaF3_HER2YVMA cells (setting [2]) and at BaF3_EGFRWT cells (setting [3]) were below 200 nM, below 200 nM and 1500 to 5000 nM, respectively.
In the case of `C=C(CN(C)C)C(=O)N1CC2CCC1CC2c1ccn2ncnc(Nc3ccc(Oc4ccn5ncnc5c4)c(C)c3)c12` (single isomer, unassigned) [Examples 135 and 136, first eluting isomer, 1-(5-(4-((4-([1,2,4]triazolo[1,5-a]pyridin-7-yloxy)-3-methylphenyl)amino)pyrrolo[2,1-f][1,2,4]triazin-5-yl)-2-azabicyclo[2.2.2]octan-2-yl)-2-((dimethylamino)methyl)prop-2-en-1-one], the GI50 was below 200 nM on BaF3_HER2WT cells (setting [4]), below 200 nM at BaF3_HER2YVMA cells (setting [5]) and 1500 to 5000 nM on BaF3_EGFRWT cells (setting [6]).
